The values that follow come from US9610255B2, “Lycopene and resveratrol dietary supplement” (HSIEHS BIOTECH (SINGAPORE) PTE LTD, priority 2009, dated 2017).

One data set concerns prostatic carcinoma. Particulars: 47,000 participants over 6 years (Giovannucci, E., 1995); cited from earlier work.
For data set [1] the following is noted: cited from earlier work.
The conditions of data set [2]: Di Mascio P., 1989; cited from earlier work.
For data set [3] the following is noted: human, in vivo, po.
Data set [4] is described as follows: Distribution in the body after oral intake.

In the case of `CC(C)=CCC/C(C)=C/C=C/C(C)=C/C=C/C(C)=C/C=C/C=C(C)/C=C/C=C(C)/C=C/C=C(\C)CCC=C(C)C` [lycopene], in the data set on prostatic carcinoma, the “lowering of incidence of prostatic carcinoma in the lycopene group” value was “over 30%”. In addition, the solubility in water entry in data set [1] is reported as “water-insoluble”. In addition, the “activity in quenching oxygen-singlet among all carotenoids including β-carotene” value in data set [2] is listed as “highest activity”. Also, the “share of adsorbed compound that goes to the prostate and other internal organs” value in data set [3] is recorded as “over 90%”.
On to `Oc1ccc(/C=C/c2cc(O)cc(O)c2)cc1` [resveratrol], for which, in data set [1], the “solubility in organic solvents such as ethanol and acetone” value is listed as “soluble”; the solubility in water result is reported as “slightly soluble”. In addition, the “main distribution in the body” value in data set [4] is “heart, circulation system, along respiratory tract and skin”.
